Results taken from PubChem BioAssay AID1963860 (Molecular Pharmacology Branch, DTP, NCI, 2024).

System: CN0375-F725-PDC KRAS spheroid viability
Experiment: Anticancer human tumor CN0375-F725-PDC patient-derived colon carcinoma cell line growth inhibition [KRAS2]
Details: spheroids with HUVEC and MSC; for IC50: curve of first compound; for viability, T/C: stronger effect = lower value; active = viability on the fitted dose curve at most 10% of control; inactive = the rest
Method in brief: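 Combination screen of spheroid viability in tumor-cell co-cultures with endothelial (HUVEC) and mesenchymal stem cell stroma. Each agent was tested in half-log dilutions, topping at clinical Cmax or at 10 microM without a known Cmax.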

[1] = second compound 0.1 µM, first compound 0.0316 µM
[2] = second compound 0.1 µM, first compound 0.1 µM
[3] = second compound 0.1 µM, first compound 0.316 µM
[4] = second compound 0.1 µM, first compound 1 µM
[5] = second compound 0.1 µM, first compound 3.16 µM
[6] = second compound 0.1 µM, first compound 10 µM
[7] = second compound 0.316 µM, first compound 0.0316 µM
[8] = second compound 0.316 µM, first compound 0.1 µM
[9] = second compound 0.316 µM, first compound 0.316 µM
[10] = second compound 0.316 µM, first compound 1 µM
[11] = second compound 0.316 µM, first compound 3.16 µM
[12] = second compound 0.316 µM, first compound 10 µM
[13] = second compound 1 µM, first compound 0.0316 µM
[14] = second compound 1 µM, first compound 0.1 µM
[15] = second compound 1 µM, first compound 0.316 µM
[16] = second compound 1 µM, first compound 1 µM
[17] = second compound 1 µM, first compound 3.16 µM
[18] = second compound 1 µM, first compound 10 µM
[19] = second compound 3.16 µM, first compound 0.0316 µM
[20] = second compound 3.16 µM, first compound 0.1 µM
[21] = second compound 3.16 µM, first compound 0.316 µM
[22] = second compound 3.16 µM, first compound 1 µM
[23] = second compound 3.16 µM, first compound 3.16 µM
[24] = second compound 3.16 µM, first compound 10 µM
[25] = second compound 10 µM, first compound 0.0316 µM
[26] = second compound 10 µM, first compound 0.1 µM
[27] = second compound 10 µM, first compound 0.316 µM
[28] = second compound 10 µM, first compound 1 µM
[29] = second compound 10 µM, first compound 3.16 µM
[30] = second compound 10 µM, first compound 10 µM
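Also: spheroids exposed to agents for 7 days.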

CC(C)NCC(C(=O)N1CCN(c2ncnc3c2C(C)CC3O)CC1)c1ccc(Cl)cc1 (stereo not given) + CNCc1ccccc1-c1csc(C(C)Nc2nc(C)nc3cc(OC)c(OC)cc23)c1
active: viability, T/C [19] 0.23% | viability, T/C [20] 0.3% | viability, T/C [21] 0.25% | viability, T/C [22] 0.28% | viability, T/C [23] 0.31% | viability, T/C [24] 0.32% | viability, T/C [25] 0.14% | viability, T/C [26] 0.14% | viability, T/C [27] 0.16% | viability, T/C [28] 0.14% | viability, T/C [29] 0.13% | viability, T/C [30] 0.2%
> 10000 nM: IC50 (second compound 0.1 µM) | IC50 (second compound 0.316 µM)
370 nM: IC50 (second compound 1 µM)
< 31.6 nM: IC50 (second compound 3.16 µM) | IC50 (second compound 10 µM)
inactive: viability, T/C [1] 107% | viability, T/C [2] 103% | viability, T/C [3] 93.1% | viability, T/C [4] 82.6% | viability, T/C [5] 89.5% | viability, T/C [6] 78.7% | viability, T/C [7] 99.4% | viability, T/C [8] 98.2% | viability, T/C [9] 88.5% | viability, T/C [10] 85.2% | viability, T/C [11] 80% | viability, T/C [12] 61.8% | viability, T/C [13] 56.6% | viability, T/C [14] 57.2% | viability, T/C [15] 48.4% | viability, T/C [16] 45.2% | viability, T/C [17] 30.1% | viability, T/C [18] 16%

CC1(C)CCC(CN2CCN(c3ccc(C(=O)NS(=O)(=O)c4ccc(NCC5CCOCC5)c([N+](=O)[O-])c4)c(Oc4cnc5[nH]ccc5c4)c3)CC2)=C(c2ccc(Cl)cc2)C1 + CNCc1ccccc1-c1csc(C(C)Nc2nc(C)nc3cc(OC)c(OC)cc23)c1
< 31.6 nM: IC50 (second compound 1 µM) | IC50 (second compound 3.16 µM) | IC50 (second compound 10 µM)
2830 nM: IC50 (second compound 0.316 µM)
inactive: viability, T/C [1] 104% | viability, T/C [2] 104% | viability, T/C [3] 103% | viability, T/C [4] 96.2% | viability, T/C [5] 61.6% | viability, T/C [6] 29.8% | viability, T/C [7] 90.7% | viability, T/C [8] 95.5% | viability, T/C [9] 93.4% | viability, T/C [10] 89.5% | viability, T/C [11] 45.9% | viability, T/C [12] 18.7% | viability, T/C [13] 36.5% | viability, T/C [14] 42.3% | viability, T/C [15] 40.7% | viability, T/C [16] 50.9% | viability, T/C [17] 15.2%
4810 nM: IC50 (second compound 0.1 µM)
active: viability, T/C [18] 7.89% | viability, T/C [19] 0.26% | viability, T/C [20] 0.27% | viability, T/C [21] 0.18% | viability, T/C [22] 0.2% | viability, T/C [23] 0.25% | viability, T/C [24] 0.68% | viability, T/C [25] 0.12% | viability, T/C [26] 0.14% | viability, T/C [27] 0.13% | viability, T/C [28] 0.13% | viability, T/C [29] 0.16% | viability, T/C [30] 0.19%

Cn1ncnc1[C@H]1c2n[nH]c(=O)c3cc(F)cc(c23)N[C@@H]1c1ccc(F)cc1 + CNCc1ccccc1-c1csc(C(C)Nc2nc(C)nc3cc(OC)c(OC)cc23)c1
active: viability, T/C (second compound 3.16 µM, first compound 0.000316 µM) 0.23% | viability, T/C (second compound 3.16 µM, first compound 0.001 µM) 0.33% | viability, T/C (second compound 3.16 µM, first compound 0.00316 µM) 0.31% | viability, T/C (second compound 3.16 µM, first compound 0.01 µM) 0.28% | viability, T/C [19] 0.25% | viability, T/C [20] 0.42% | viability, T/C (second compound 10 µM, first compound 0.000316 µM) 0.14% | viability, T/C (second compound 10 µM, first compound 0.001 µM) 0.33% | viability, T/C (second compound 10 µM, first compound 0.00316 µM) 0.13% | viability, T/C (second compound 10 µM, first compound 0.01 µM) 0.15% | viability, T/C [25] 0.13% | viability, T/C [26] 0.23%
inactive: viability, T/C (second compound 0.1 µM, first compound 0.000316 µM) 107% | viability, T/C (second compound 0.1 µM, first compound 0.001 µM) 106% | viability, T/C (second compound 0.1 µM, first compound 0.00316 µM) 97% | viability, T/C (second compound 0.1 µM, first compound 0.01 µM) 95.7% | viability, T/C [1] 95.4% | viability, T/C [2] 93.6% | viability, T/C (second compound 0.316 µM, first compound 0.000316 µM) 100% | viability, T/C (second compound 0.316 µM, first compound 0.001 µM) 101% | viability, T/C (second compound 0.316 µM, first compound 0.00316 µM) 94.5% | viability, T/C (second compound 0.316 µM, first compound 0.01 µM) 86.9% | viability, T/C [7] 91% | viability, T/C [8] 88.2% | viability, T/C (second compound 1 µM, first compound 0.000316 µM) 54.1% | viability, T/C (second compound 1 µM, first compound 0.001 µM) 46.2% | viability, T/C (second compound 1 µM, first compound 0.00316 µM) 47.8% | viability, T/C (second compound 1 µM, first compound 0.01 µM) 41.5% | viability, T/C [13] 39.4% | viability, T/C [14] 40.6%
0.634 nM: IC50 (second compound 1 µM)
> 100 nM: IC50 (second compound 0.1 µM) | IC50 (second compound 0.316 µM)
< 0.316 nM: IC50 (second compound 3.16 µM) | IC50 (second compound 10 µM)
